{"source": "patent US9339423B2", "about": "“Absorbent article” (UNICHARM CORPORATION, priority 2012, dated 2016)", "key": {"[1]": {"test": "Absorbent body migration rate of sanitary napkin", "conditions": "horse EDTA blood, after second dropping; agent coated about 5 g/m^2", "protocol": "(§1) A commercially available sanitary napkin was prepared. The sanitary napkin was formed from a top sheet, formed of a hydrophilic agent-treated air-through nonwoven fabric (composite fiber composed of polyester and polyethylene terephthalate, basis weight: 35 g/m^2), a second sheet, formed of an air-through nonwoven fabric (composite fiber composed of polyester and polyethylene terephthalate, basis weight: 30 g/m^2), an absorbent body comprising pulp (basis weight: 150-450 g/m^2, increased at the center section), an acrylic super-absorbent polymer (basis weight: 15 g/m^2) and tissue as a core wrap, a water-repellent agent-treated side sheet, and a back sheet composed of a polyethylene film.\n(§2) The skin contact surface of the top sheet of the sanitary napkin was coated with the aforementioned blood modifying agent. Each blood modifying agent was used directly, when the blood modifying agent was liquid at room temperature, or when the blood modifying agent was solid at room temperature it was heated to its […], and a control seam HMA gun was used for atomization of the blood modifying agent and coating onto the entire skin contact surface of the top sheet to a basis weight of about 5 g/m^2.\n(§3) (obtained by adding appropriate amount of ethylenediaminetetraacetic acid (hereunder, “EDTA”) to horse blood to prevent coagulation) was dropped through the hole using a pipette (once), and after 1 minute, 3 g of horse EDTA blood at 37±1° C. was again added dropwise through the acrylic board hole with a pipette (twice).\nIn addition to the rewetting rate evaluation, the “absorbent body migration rate” was also measured as the time until migration of blood from the top sheet to the absorbent body after the second dropping of blood. The absorbent body migration rate is the time from introducing the blood onto the top sheet, until the redness of the blood […] on the surface and in the interior of the top sheet."}, "[2]": {"test": "Rewetting rate of sanitary napkin with blood modifying agent-coated top sheet", "conditions": "horse EDTA blood 3 g twice at 37±1° C.; agent coated about 5 g/m^2 on top sheet", "protocol": "as §1, §2, §3"}, "[3]": {"test": "Water solubility, visual evaluation after 24 hours", "source_text": "As used herein, the term “solubility” in regard to water solubility includes cases where the sample completely dissolves in deionized water to form a homogeneous mixture, and cases where the sample is completely emulsified. As used herein, “completely” means that no mass of the sample remains in the deionized water."}, "[4]": {"conditions": "at 20° C.; cited from earlier work"}}, "note": "Where two headings read alike, the source gives them in different places."}
{"molecule": "CCCCCCCCCCCC(=O)OCC(O)CO", "note": "(stereo not drawn) [Monomuls 90-L2 lauric acid monoglyceride, lauric acid monoglyceride]", "values": [{"measurement": "Absorber migration rate", "setting": "[1]", "value": 7, "unit": "s"}]}
{"molecule": "CCCCC(CC)C(=O)OCC(COC(=O)C(CC)CCCC)OC(=O)C(CC)CCCC", "note": "(stereo not drawn) [PANACET 800B]", "values": [{"measurement": "Rewetting rate (%)", "setting": "[2]", "value": 2.0, "unit": "%"}, {"measurement": "Water solubility", "setting": "[3]", "value": "<0.05", "unit": "g"}, {"measurement": "Absorber migration rate", "setting": "[1]", "value": 3, "unit": "s"}]}
{"molecule": "CCCCCCCCCCCCCC(=O)OCCCCCCCCCCCC", "note": "[ELECTOL WE40, Ester of tetradecanoic acid (C14) and dodecyl alcohol (C12)]", "values": [{"measurement": "Absorber migration rate", "setting": "[1]", "value": 4, "unit": "s"}]}
{"molecule": "Caprylic acid diglyceride", "values": [{"measurement": "Absorber migration rate", "setting": "[1]", "value": 9, "unit": "s"}]}
{"molecule": "CC(C)CCCCCCCCCCCCCCCOC(=O)CC(O)C(=O)OCCCCCCCCCCCCCCCC(C)C", "note": "(stereo not drawn) [Diisostearyl malate]", "values": [{"measurement": "Rewetting rate (%)", "setting": "[2]", "value": 5.5, "unit": "%"}, {"measurement": "Water solubility (g)", "setting": "[3]", "value": "20< g"}, {"measurement": "Absorber migration rate", "setting": "[1]", "value": 8, "unit": "s"}]}
{"molecule": "CCCCCCCCCCCCOC(=O)CCCCCCCCCCC", "note": "[ELECTOL WE20, Ester of dodecanoic acid (C12) and dodecyl alcohol (C12)]", "values": [{"measurement": "Absorber migration rate", "setting": "[1]", "value": 5, "unit": "s"}]}
{"molecule": "CCCCC(CC)C(=O)OCC(C)(C)COC(=O)C(CC)CCCC", "note": "(stereo not drawn) [UNISTAR H-208BRS, Neopentylglycol di-2-ethylhexanoate]", "values": [{"measurement": "Absorber migration rate", "setting": "[1]", "value": 5, "unit": "s"}]}
{"molecule": "CCCCOC(=O)CC(CC(=O)OCCCC)(OC(C)=O)C(=O)OCCCC", "note": "[Tributyl O-acetylcitrate]", "values": [{"measurement": "Rewetting rate (%)", "setting": "[2]", "value": 6.2, "unit": "%"}, {"measurement": "Water solubility", "setting": "[3]; in 100 g of water at 25° C., 24 hours", "value": "<0.05", "unit": "g"}, {"measurement": "Absorber migration rate", "setting": "[1]", "value": 8, "unit": "s"}]}
{"molecule": "CCCCCCCCOC(=O)CCCCC(=O)OCCCCCCCC", "note": "[Dioctyl adipate]", "values": [{"measurement": "Absorber migration rate", "setting": "[1]", "value": 6, "unit": "s"}]}
{"molecule": "Isopropyl citrate", "values": [{"measurement": "Absorber migration rate", "setting": "[1]", "value": 5, "unit": "s"}]}
{"molecule": "CCCCCCCC(=O)OCC(COC(=O)CCCCCCC)OC(=O)CCCCCCC", "note": "[PANACET 800]", "values": [{"measurement": "Absorber migration rate", "setting": "[1]", "value": 3, "unit": "s"}]}
{"molecule": "CCCCC(=O)CCCC", "note": "[5-nonanone]", "values": [{"measurement": "Vapor pressure", "setting": "[4]", "value": "about 230 Pa"}]}
